Values joined by “and” are separate entries in the source; they are usually repeats but may differ in a detail not shown here. Identical values can stand only once.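 Interpolation was linear, between the two tested concentrations surrounding the appropriate level; five concentrations were tested over 48 hours in 96-well plates. Here, GI50 denotes the concentration required for 50% inhibition of growth. TGI denotes the concentration required for complete inhibition of growth.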
How the values were obtained:
Experiment in all cases: inhibition of tumour cell growth, NCI panel, 48 h
[1] = test system: A498 renal
[2] = test system: UO-31 renal
[3] = test system: BT-549 breast
[4] = test system: SK-MEL-28 melanoma
[5] = test system: EKVX NSCLC
[6] = test system: NCI-H522 lung
[7] = test system: MCF7 breast
[8] = test system: MDA-MB-435
[9] = test system: NCI/ADR-RES ovarian
[10] = test system: IGROV1 ovarian

SMILES: NCCSC(C[N+](=O)[O-])c1ccccc1Cl (stereo not given)
- GI50 [1]: 2.3 µM
- TGI [1]: 4.69 µM
- GI50 [2]: 3.46 µM
- TGI [2]: 10.1 µM
- GI50 [3]: 2.03 µM
- TGI [3]: 4.26 µM
- GI50 [4]: 2.08 µM
- TGI [4]: 4.6 µM
- GI50 [5]: 16.9 µM
- TGI [5]: 41.6 µM
- GI50 [6]: 24.9 µM
- TGI [6]: > 56.1 µM
- GI50 [7]: 1.13 µM
- TGI [7]: 3.2 µM
- GI50 [8]: 1.87 µM
- TGI [8]: 5.42 µM
- GI50 [9]: 9.85 µM
- TGI [9]: > 23.4 µM
- GI50 [10]: 2.89 µM
- TGI [10]: 9.67 µM

SMILES: COc1cc(NC(=O)c2cc(O)c(C/C=C(\C)CCC=C(C)C)c(O)c2)cc2c1O[C@]1(C)CC[C@@H](O)C(C)(C)[C@H]1C2
- GI50 [1]: 0.963 µM
- TGI [1]: 7.9 µM
- GI50 [2]: 2.7 µM
- TGI [2]: 9.71 µM
- GI50 [3]: 0.841 µM
- TGI [3]: 3.55 µM
- GI50 [4]: 1.43 µM
- TGI [4]: 8.25 µM
- GI50 [5]: 2.25 µM
- TGI [5]: 11.4 µM
- GI50 [6]: 2.02 µM
- TGI [6]: 6.5 µM
- GI50 [7]: 1.08 µM
- TGI [7]: 5.73 µM
- GI50 [8]: 2.01 µM
- TGI [8]: 8.19 µM
- GI50 [9]: 7.89 µM
- TGI [9]: 44.5 µM
- GI50 [10]: 2.45 µM
- TGI [10]: 11.1 µM

SMILES: O=C(Cn1c2ccccc2c2ccncc21)N/N=C\c1ccc2ccccc2c1
- GI50 [1]: 27.5 µM
- TGI [1]: 80.8 µM
- GI50 [2]: 13.3 µM
- TGI [2]: 45.6 µM
- GI50 [3]: 15.6 µM
- TGI [3]: 36.5 µM
- GI50 [4]: 19.2 µM
- TGI [4]: 79.7 µM
- GI50 [5]: 24.8 µM
- TGI [5]: > 100 µM
- GI50 [6]: 19.6 µM
- TGI [6]: 51.5 µM
- GI50 [7]: 14.3 µM
- TGI [7]: > 100 µM
- GI50 [8]: 17.1 µM
- TGI [8]: 63.3 µM
- GI50 [9]: 15.8 µM
- TGI [9]: > 100 µM
- GI50 [10]: 13 µM
- TGI [10]: 38.3 µM

SMILES: CN(C)N=Nc1nn(C(=O)Nc2ccc(Cc3ccccc3)cc2)c2ccccc12
- GI50 [1]: > 58.9 µM
- TGI [1]: > 100 µM
- GI50 [2]: 3.23 µM
- TGI [2]: > 79 µM
- GI50 [3]: 25.7 µM
- TGI [3]: > 100 µM
- TGI [4]: > 100 µM
- GI50 [6]: 1.9 µM
- TGI [6]: > 100 µM
- GI50 [7]: 0.387 µM
- TGI [7]: > 100 µM
- TGI [8]: > 100 µM
- GI50 [9]: 0.957 µM
- TGI [9]: > 100 µM
- GI50 [10]: 43.5 µM
- TGI [10]: > 100 µM

SMILES: Nc1nc(Cl)nc2c1ncn2[C@@H]1O[C@H](COS(N)(=O)=O)[C@@H](O)[C@H]1O
- GI50 [1]: 0.00943 µM and 0.0148 µM
- TGI [1]: 0.0254 µM and 0.0309 µM
- GI50 [2]: 0.0193 µM
- TGI [2]: 0.0475 µM
- GI50 [3]: 0.009 µM and 0.0243 µM
- TGI [3]: 0.0646 µM and 0.0713 µM
- GI50 [4]: 0.0201 µM and 0.0208 µM
- TGI [4]: 0.05 µM and 0.0511 µM
- GI50 [5]: 0.0232 µM and 0.0301 µM
- TGI [5]: 0.0688 µM and 0.167 µM
- GI50 [6]: 0.00503 µM and 0.0212 µM
- TGI [6]: 0.0244 µM and 0.0623 µM
- GI50 [7]: 0.024 µM and 0.0293 µM
- GI50 [8]: 0.0171 µM and 0.0176 µM
- TGI [8]: 0.0327 µM and 0.0341 µM
- GI50 [9]: 0.0121 µM and 0.0196 µM
- TGI [9]: 0.054 µM and 0.145 µM
- GI50 [10]: 0.0304 µM and 0.0308 µM
- TGI [10]: 0.0915 µM and 0.0964 µM

SMILES: O=C(CN1C(=O)S/C(=C\C(Cl)=C\c2ccccc2)C1=O)NCCCn1ccnc1
- GI50 [1]: 1.28 µM
- TGI [1]: 5.57 µM
- GI50 [2]: 1.61 µM
- TGI [2]: 3.49 µM
- GI50 [3]: 2.12 µM
- TGI [3]: 4.83 µM
- GI50 [4]: 1.85 µM
- TGI [4]: 3.72 µM
- GI50 [5]: 2.43 µM
- TGI [5]: 6.69 µM
- GI50 [6]: 2.02 µM
- TGI [6]: 5.15 µM
- GI50 [7]: 1.36 µM
- TGI [7]: 6.11 µM
- GI50 [8]: 1.99 µM
- TGI [8]: 4.19 µM
- GI50 [9]: 4.13 µM
- TGI [9]: > 100 µM
- GI50 [10]: 1.82 µM
- TGI [10]: 4.23 µM

SMILES: COc1cc2c3cc1Oc1c(OC)c(OC)cc4c1C(Cc1ccc(cc1)Oc1cc(ccc1O)CC3N(C)CC2)N(C)CC4 (stereo not given)
- TGI [1]: 32.9 µM
- TGI [2]: 21.5 µM and 20.6 µM
- TGI [3]: 22.8 µM
- GI50 [4]: 12.9 µM and 5.81 µM
- TGI [4]: 25.9 µM and 26 µM
- TGI [5]: > 100 µM and 33.3 µM
- GI50 [6]: 1.57 µM and 4.86 µM
- TGI [6]: 14.2 µM and 20.5 µM
- TGI [7]: 20.8 µM
- TGI [8]: 31.9 µM
- TGI [9]: 60.5 µM
- TGI [10]: 43.8 µM and 29.4 µM

SMILES: O=c1[nH]nc(-c2ccccc2)c2c(-c3ccccc3)onc12
- GI50 [1]: 0.287 µM
- TGI [1]: 3.69 µM
- GI50 [2]: 0.592 µM
- TGI [2]: > 100 µM
- GI50 [3]: 0.506 µM
- TGI [3]: > 47.8 µM
- GI50 [4]: 0.793 µM
- TGI [4]: > 100 µM
- GI50 [5]: 1.25 µM
- TGI [5]: > 100 µM
- GI50 [6]: 0.648 µM
- TGI [6]: 24.3 µM
- GI50 [7]: 0.368 µM
- TGI [7]: > 100 µM
- GI50 [9]: 0.331 µM
- TGI [9]: > 100 µM
- GI50 [10]: 0.615 µM
- TGI [10]: > 100 µM

SMILES: COc1cc(-c2oc3c(OC)c(O)cc(O)c3c(=O)c2OC)ccc1O
- TGI [1]: 17.2 µM
- TGI [2]: 14.8 µM
- TGI [3]: 59.2 µM
- TGI [4]: > 100 µM
- TGI [5]: 72.5 µM
- TGI [6]: > 37.2 µM
- TGI [7]: > 75.6 µM
- TGI [8]: 52.3 µM
- TGI [9]: > 83.5 µM
- TGI [10]: 15.3 µM

SMILES: CNC(=O)c1cncc(/C=C/c2c(Cl)cccc2Cl)c1
- GI50 [1]: 7.44 µM
- TGI [1]: > 25 µM
- GI50 [2]: 6.69 µM
- TGI [2]: > 25 µM
- GI50 [3]: > 25 µM
- TGI [3]: > 25 µM
- GI50 [4]: > 25 µM
- TGI [4]: > 25 µM
- GI50 [5]: > 25 µM
- TGI [5]: > 25 µM
- GI50 [6]: 8.38 µM
- TGI [6]: > 25 µM
- GI50 [7]: > 25 µM
- TGI [7]: > 25 µM
- GI50 [8]: 6.88 µM
- TGI [8]: > 25 µM
- GI50 [9]: > 21.2 µM
- TGI [9]: > 25 µM
- GI50 [10]: > 17.9 µM
- TGI [10]: > 25 µM

SMILES: C=C1C(=O)O[C@H]2[C@H]1CC/C(CNC(=O)/C=C/c1ccc(Cl)cc1Cl)=C\CC[C@@]1(C)O[C@@H]21
- GI50 [1]: 1.47 µM
- TGI [1]: 3.87 µM
- GI50 [2]: 1.03 µM
- TGI [2]: 2.28 µM
- GI50 [3]: 0.975 µM
- TGI [3]: 2.59 µM
- GI50 [4]: 1.32 µM
- TGI [4]: 2.93 µM
- GI50 [5]: 1.55 µM
- TGI [5]: 3.1 µM
- GI50 [6]: 1.09 µM
- TGI [6]: 2.51 µM
- GI50 [8]: 0.444 µM
- TGI [8]: 1.74 µM
- GI50 [9]: 2.57 µM
- TGI [9]: 12.8 µM
- GI50 [10]: 1.63 µM
- TGI [10]: 3.41 µM

SMILES: COc1ccc(OC)c(/C=N/N=C2\C(=O)Nc3c(Cl)cc(Cl)cc32)c1
- TGI [1]: > 100 µM
- TGI [2]: > 100 µM
- TGI [3]: 72.5 µM
- TGI [4]: > 100 µM
- TGI [5]: > 100 µM
- TGI [7]: > 100 µM
- TGI [8]: > 100 µM
- TGI [9]: > 100 µM
- TGI [10]: > 100 µM

SMILES: CN(C)CC1=Nc2cccc3cccc(c23)N1
- TGI [1]: 28.2 µM
- TGI [2]: 23 µM
- TGI [3]: 31.5 µM
- TGI [4]: 49.1 µM
- TGI [5]: 31.7 µM
- TGI [7]: 30.8 µM
- TGI [8]: 38.1 µM
- TGI [9]: > 100 µM
- TGI [10]: 36.6 µM

SMILES: C=C(C)C(=O)O[C@H]1CC2=CC(CC(C)=C[C@H]3OC(=O)C(=C)C13)OC2=O (stereo not given in full)
- TGI [1]: 76 µM
- TGI [3]: 38.9 µM
- TGI [4]: 31.2 µM
- TGI [5]: 43.8 µM
- TGI [6]: 17 µM
- TGI [7]: 49.1 µM
- TGI [8]: > 100 µM
- TGI [9]: > 100 µM
- TGI [10]: > 100 µM

SMILES: COc1ccc(C=C2C(=O)NC(=O)NC2=O)cc1OCc1ccccc1
- GI50 [2]: 33 µg/mL
- GI50 [3]: 16.8 µg/mL
- TGI [3]: 43.2 µg/mL
- GI50 [4]: 65.7 µg/mL
- GI50 [5]: 85.2 µg/mL
- GI50 [7]: 59.6 µg/mL
- GI50 [8]: 20.2 µg/mL
- TGI [8]: 56.1 µg/mL
- GI50 [9]: 39.4 µg/mL
- GI50 [10]: 27.1 µg/mL

Source: PubChem BioAssay (NCI)
